Data on seven molecules can be found in patent US7659299B2, “Compounds inhibiting the binding of sap for treating osteoarthritis” (Pentraxin Therapeutics Limited, priority 2003, dated 2010).

Several values for one entry are separate records, joined by “and”; a condition that tells them apart may be missing. Equal entries are not always repeated.

Test [1] concerns the target T1, SAP (Homo sapiens, UniProt P02743). Briefly: Isothermal calorimetry: dissociation constants between SAP and compounds. The class given is binding. The note with it: for Kd: replicate measurements, read-out: Kd in micromoles per liter (replicate measurements). The source says:
Surface plasmon resonance (SPR) is a low throughput but powerfully informative method to identify compounds that are bound by, or themselves bind to SAP, either in a calcium dependent fashion or independently of calcium, for the purposes of the present invention. For example, low molecular weight compounds that inhibit binding of SAP to its macromolecular ligands, including target ligands relevant to the present invention, can be detected by their effect on the signal generated by fluid phase SAP binding to ligand immobilised on the solid phase (Example A). Furthermore, when SAP itself is immobilised on the solid phase in an SPR instrument, the interaction with it of test molecules provided in the fluid phase generates a signal that can be detected and quantified. Purified SAP immobilized within an SPR instrument gives a quantifiable signal when it is exposed to another molecule that forms a complex with the SAP, and this is distinct from the absence of such a signal if no complex is formed. […] Another low throughput but powerful direct method is isothermal calorimetry that measures the heat of interaction in solution between SAP and test compounds according to the present invention. The binding affinity can be measured precisely as a guide to potential efficacy. Typical results by this method for the dissociation constants, Kd, between SAP and various compounds are as follows: […]

Test [2] deals with T1, SAP. The test can be described thus: Inhibition of binding of 125I radiolabelled SAP to native long chromatin immobilized in microtitre plates. Also on record: 5 μl of radiolabelled SAP in TN; from tissue. To be noted: for Inhibition of binding of SAP to chromatin, in words: Table 2; for inhibition at 0.2 µM: compound 200 nM; for inhibition at 0.2 µM / inhibition at 2 µM / inhibition at 20 µM / inhibition at 200 µM / inhibition at 2000 µM: read-out: Percent inhibition of binding of radiolabelled SAP to immobilized native long chromatin; for inhibition at 2 µM: compound 2 μM; for inhibition at 20 µM: compound 20 μM; for inhibition at 200 µM: compound 200 μM.

Test [3] addresses T1, SAP. Briefly: Inhibition of binding of 125I radiolabelled SAP to Neisseria meningitidis immobilized in microtitre plates. Also on record: 5 μl of radiolabelled SAP in TN; from tissue. To be noted: for inhibition at 20 µM: compound 20 μM; for inhibition at 20 µM / inhibition at 2000 µM / inhibition at 0.2 µM / inhibition at 2 µM / inhibition at 200 µM: read-out: Percent inhibition of binding of radiolabelled SAP to immobilized Neisseria meningitidis; for inhibition at 2000 µM: compound 2 mM; for Inhibition of binding of SAP to meningococci, in words: summary of Table 1; for inhibition at 0.2 µM: compound 200 nM; for inhibition at 2 µM: compound 2 μM; for inhibition at 200 µM: compound 200 μM. Here is the method:
A suspension of heat killed Neisseria meningitidis at 1×10^8 organisms per ml in PBS was dispensed to polystyrene microtitre plates at 50 μl volumes per well, and left overnight at 4° C. All wells were then washed three times with 200 μl volumes of PBS containing 0.05% v/v Tween 20, prior to equilibration for 2 min with 0.01M Tris buffered 0.14M NaCl/0.002M CaCl2 at pH 8.0 (TC buffer), containing 4% w/v BSA and 0.05%/v Tween 20 (TCBT buffer). The wells were then emptied before adding to each one the following reagents. […] For background, non-specific, non calcium dependent, binding in the presence of EDTA: 5 μl radiolabelled SAP in TN and 45 μl 0.01M Tris buffered 0.14M NaCl at pH 8.0 containing 11.1 mM EDTA, 4.4% w/v BSA and 0.06% w/v Tween 20 (TEBT buffer) to provide final concentrations of EDTA, 10 mM; BSA, 4%; Tween 20, 0.05%. […] All wells were then incubated at room temperature for 2 h before being washed three times with 200 μl volumes of TCBT, allowed to dry for 1 h at room temperature, and bound radiolabelled SAP was then counted.
The capacity of the compounds tested to inhibit binding of SAP to meningococci is expressed as the percentage by which SAP binding was reduced compared to binding in the absence of any inhibitor (Table 1).

Test [4] has as its target T1, SAP. Briefly: Inhibition of binding of 125I radiolabelled SAP to influenza virus immobilized in microtitre plates. More on the design: 5 μl of radiolabelled SAP in TN; from tissue. To be noted: for inhibition at 20 µM: compound 20 μM; for inhibition at 20 µM / inhibition at 200 µM / inhibition at 0.2 µM / inhibition at 2 µM / inhibition at 2000 µM: read-out: Percent inhibition of binding of radiolabelled SAP to immobilized influenza virus; for inhibition at 200 µM: compound 200 μM; for Inhibition of binding of SAP to immobilised influenza virus, in words: summary of Table 3; for inhibition at 0.2 µM: compound 200 nM; for inhibition at 2 µM: compound 2 μM; for inhibition at 2000 µM: compound 2 mM. Here is the method:
A concentrated suspension of purified influenza virus A/Shanghai/24/90 at 10 mg protein per ml in PBS was diluted 1:50 in PBS and then dispensed to polystyrene microtitre plates at 50 μl volumes per well, and left overnight at 4° C. All wells were then emptied before blocking by addition to each well of 200 μl of 2% w/v BSA in PBS and incubation at room temperature for 1 h. All wells were then washed three times with 200 μl volumes of PBS containing 0.05% v/v Tween 20, prior to equilibration for 2 min with 0.01M Tris buffered 0.14M NaCl/0.002M CaCl2 at pH 8.0 (TC buffer), containing 4% w/v BSA and 0.05% v/v Tween 20 (TCBT buffer). The wells were then emptied before adding to each one the following reagents. […] For background, non-specific, non calcium dependent, binding in the presence of EDTA: 5 μl radiolabelled SAP in TN and 45 μl 0.01M Tris buffered 0.14M NaCl at pH 8.0 containing 11.1 mM EDTA, 4.4% w/v BSA and 0.06% w/v Tween 20 (TEBT buffer) to provide final concentrations of EDTA, 10 mM; BSA, 4%; Tween 20, 0.05%. […] All wells were then incubated at room temperature for 2 h before being washed three times with 200 μl volumes of TCBT, allowed to dry for 1 h at room temperature, and bound radiolabelled SAP was then counted. The compounds tested in the experiment shown here were the same as those specified in Example B above.
The capacity of the compounds tested to inhibit binding of SAP to the immobilised influenza virus is expressed as the percentage by which SAP binding was reduced compared to binding in the absence of any inhibitor (Table 3).

T1 sequence (P02743 20-223): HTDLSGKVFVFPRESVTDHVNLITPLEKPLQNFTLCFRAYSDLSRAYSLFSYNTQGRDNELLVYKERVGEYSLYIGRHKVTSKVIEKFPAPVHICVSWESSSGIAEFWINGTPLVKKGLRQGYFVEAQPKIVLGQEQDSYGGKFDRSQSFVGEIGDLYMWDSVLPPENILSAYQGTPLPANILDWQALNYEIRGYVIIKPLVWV

Consider `CC(=O)N1CCC[C@@H]1C(=O)O` [N-acetyl-D-proline], for which the Kd (commonly the concentration at which binding is half-saturated) at SAP [1] was 16 µM and 23 µM and 17 µM.

As to `C[N+](C)(C)CCOP(=O)([O-])O` [Phosphocholine, reference compound], the “Kd in micromoles per liter (replicate measurements)” value at SAP [1] is given as “No binding”. Further, at SAP [2], the “Inhibition of binding of SAP to chromatin, in words” value is listed as “virtually no effect”; the inhibition (commonly how much of the control response was suppressed) at 0.2 µM was 2%; the inhibition at 2 µM stood at 0%; the inhibition at 20 µM came out at 0%. Also, at SAP [2], the inhibition at 200 µM amounted to 3% and the inhibition at 2000 µM was determined as 19%. At SAP [3], the inhibition at 20 µM turned out to be 4%; the inhibition at 2000 µM stood at 24%; the “Inhibition of binding of SAP to meningococci, in words” value is listed as “virtually no effect”. Also, at SAP [4], the inhibition at 20 µM was 5%; the inhibition at 200 µM was found to be 5%; the “Inhibition of binding of SAP to immobilised influenza virus, in words” value is “virtually no effect”.

Consider `NCCOP(=O)(O)O` [Phosphoethanolamine, reference compound], for which the Kd on SAP [1] was 36 µM and 27 µM and 48 µM. For the same molecule, at SAP [2], the “Inhibition of binding of SAP to chromatin, in words” value is listed as “inhibition at high concentration, but only modest effects when diluted”; the inhibition at 0.2 µM is 3%; the inhibition at 2 µM was determined as 9%; the inhibition at 20 µM turned out to be 36%. For the same molecule, on SAP [2], the inhibition at 200 µM came out at 59%. Besides, the inhibition at 2000 µM at SAP [2] (compound 2 mM) turned out to be 94%. Further, on SAP [3], the inhibition at 0.2 µM turned out to be 7%, the inhibition at 2 µM worked out at 18%, the inhibition at 20 µM came out at 32% and the inhibition at 200 µM was determined as 41%. Further, on SAP [3], the inhibition at 2000 µM stood at 95% and the “Inhibition of binding of SAP to meningococci, in words” value is recorded as “inhibition at high concentration, but only modest effects when diluted”. Further, at SAP [4], the inhibition at 0.2 µM came to 1%, the inhibition at 2 µM was determined as 8%, the inhibition at 20 µM is 42% and the inhibition at 200 µM is 51%. Further, at SAP [4], the inhibition at 2000 µM stood at 69% and the “Inhibition of binding of SAP to immobilised influenza virus, in words” value is on record as “inhibition at high concentration, but only modest effects when diluted”.

Turning to `O=C(O)[C@H]1CCCN1C(=O)COc1ccc(OCC(=O)N2CCC[C@@H]2C(=O)O)cc1` [Ro-64-2856, (R)-1-[[4-[2-[(R)-2-Carboxy-pyrrolidin-1-yl]-2-oxo-ethoxy]-phenoxy]-acetyl]-pyrrolidine-2-carboxylic acid], the Kd at SAP [1] was 0.019 µM and 0.02 µM. At SAP [2], the inhibition at 0.2 µM stood at 1%, the inhibition at 2 µM amounted to 36%, the inhibition at 20 µM amounted to 56% and the inhibition at 200 µM was 75%. Further, the inhibition at 2000 µM on SAP [2] (compound 2 mM) came out at 91%. Besides, at SAP [3], the inhibition at 0.2 µM is 0%, the inhibition at 2 µM is 65%, the inhibition at 20 µM is 74% and the inhibition at 200 µM was 65%. In addition, the inhibition at 2000 µM on SAP [3] was determined as 100%. At SAP [4], the inhibition at 0.2 µM was found to be 3%, the inhibition at 2 µM turned out to be 77%, the inhibition at 20 µM was found to be 82% and the inhibition at 200 µM is 84%. Also, the inhibition at 2000 µM at SAP [4] is 87%.

For `O=C(O)[C@H]1CCCN1C(=O)Cc1cc(O)c(CC(=O)N2CCC[C@@H]2C(=O)O)cc1O` [Ro-64-4383, (R)-1-[[2,5-Dihydroxy-4-[2-[(R)-2-carboxy-pyrrolidin-1-yl]-2-oxo-ethyl]-phenyl]-acetyl]-pyrrolidine-2-carboxylic acid], at SAP [2], the inhibition at 0.2 µM was 0%, the inhibition at 2 µM turned out to be 45%, the inhibition at 20 µM is 78% and the inhibition at 200 µM turned out to be 88%. On SAP [2] (compound 2 mM), the inhibition at 2000 µM worked out at 97%. Also, at SAP [3], the inhibition at 0.2 µM was 1%, the inhibition at 2 µM stood at 76%, the inhibition at 20 µM turned out to be 95% and the inhibition at 200 µM is 100%. Moreover, on SAP [3], the inhibition at 2000 µM was found to be 100%. On SAP [4], the inhibition at 0.2 µM turned out to be 24%, the inhibition at 2 µM worked out at 57%, the inhibition at 20 µM turned out to be 80% and the inhibition at 200 µM was 89%. For the same molecule, the inhibition at 2000 µM on SAP [4] was 89%.

As for `O=C(O)[C@H]1CCCN1C(=O)COc1cccc2c(OCC(=O)N3CCC[C@@H]3C(=O)O)cccc12` [Ro-64-5445, (R)-1-[[5-[2-[(R)-2-Carboxy-pyrrolidin-1-yl]-2-oxo-ethoxy]-naphthalen-1-yloxy]-acetyl]-pyrrolidine-2-carboxylic acid], at SAP [2], the inhibition at 0.2 µM stood at 12%, the inhibition at 2 µM was 51%, the inhibition at 20 µM is 74% and the inhibition at 200 µM came out at 82%. For the same molecule, the inhibition at 2000 µM on SAP [2] (compound 2 mM) came to 96%. Further, at SAP [3], the inhibition at 0.2 µM is 30%, the inhibition at 2 µM amounted to 72%, the inhibition at 20 µM worked out at 81% and the inhibition at 200 µM stood at 100%. Moreover, the inhibition at 2000 µM at SAP [3] worked out at 100%. Moreover, on SAP [4], the inhibition at 0.2 µM is 23%, the inhibition at 20 µM was found to be 64%, the inhibition at 200 µM was 76% and the inhibition at 2000 µM turned out to be 80%.

For `O=C(O)[C@H]1CCCN1C(=O)Cc1ccc(CC(=O)N2CCC[C@@H]2C(=O)O)c2ccccc12` [Ro-64-5607, (R)-1-[[4-[2-[(R)-2-Carboxy-pyrrolidin-1-yl]-2-oxo-ethyl]-naphthalen-1-yl]-acetyl]-pyrrolidine-2-carboxylic acid], on SAP [2], the inhibition at 0.2 µM stood at 15%, the inhibition at 2 µM was 35%, the inhibition at 20 µM came to 77% and the inhibition at 200 µM came to 96%. On SAP [2] (compound 2 mM), the inhibition at 2000 µM turned out to be 100%. For the same molecule, at SAP [3], the inhibition at 0.2 µM is 13%, the inhibition at 2 µM amounted to 69% and the inhibition at 20 µM is 89%. Also, at SAP [4], the inhibition at 0.2 µM came out at 4%, the inhibition at 2 µM is 64%, the inhibition at 20 µM was 95% and the inhibition at 200 µM was determined as 94%. Moreover, at SAP [4], the inhibition at 2000 µM is 98%.
